Legend:
[1] = test system: rabbit saphenous artery rings; assay: Vasorelaxant effect in vitro on phenylephrine-contracted saphenous artery rings; design: species or system Rabbits; conditions: Oryctolagus cuniculus, contraction induced by phenylephrine
Description: B-3. Vasorelaxant Effect In Vitro:
Rabbits are anesthetized and sacrificed by intravenous injection of thiopental sodium (about 50 mg/kg) and exsanguinated. The saphenous artery is removed and divided into rings 3 mm wide. The rings are mounted singly on in each case a pair of triangular hooks open at the end and made of 0.3 mm-thick special wire (Remanium®). Each ring is placed under an initial tension in 5 ml organ baths with Krebs-Henseleit solution which is at 37° C., is gassed with carbogen and has the following composition: NaCl 119 mM; KCl 4.8 mM; CaCl2×2 H2O 1 mM; MgSO4×7 H2O 1.4 mM; KH2PO4 1.2 mM; NaHCO3 25 mM; glucose 10 mM; bovine serum albumin 0.001%. The force of contraction is detected with Statham UC2 cells, amplified and digitized via A/D converters (DAS-1802 HC, Keithley Instruments, Munich) and recorded in parallel on chart recorders. Contractions are induced by addition of phenylephrine.
After several (generally 4) control cycles, the substance to be investigated is added in each further run in increasing dosage, and the level of the contraction achieved under the influence of the test substance is compared with the level of the contraction reached in the last preceding run. The concentration necessary to reduce the contraction reached in the preceding control by 50% is calculated from this (IC50). The standard application volume is 5 μl. The proportion of DMSO in the bath solution corresponds to 0.1%.

[2] = biological target: T1, soluble guanylate cyclase (sGC), recombinant guanylate cyclase reporter cell line (CHO) (Rattus norvegicus, UniProt P20595); assay: Action at a recombinant guanylate cyclase reporter cell line (CHO reporter cell); type: cell-based
T1 construct: expressed in transfected cells; host or cells: CHO
T1 sequence (P20595 1-619): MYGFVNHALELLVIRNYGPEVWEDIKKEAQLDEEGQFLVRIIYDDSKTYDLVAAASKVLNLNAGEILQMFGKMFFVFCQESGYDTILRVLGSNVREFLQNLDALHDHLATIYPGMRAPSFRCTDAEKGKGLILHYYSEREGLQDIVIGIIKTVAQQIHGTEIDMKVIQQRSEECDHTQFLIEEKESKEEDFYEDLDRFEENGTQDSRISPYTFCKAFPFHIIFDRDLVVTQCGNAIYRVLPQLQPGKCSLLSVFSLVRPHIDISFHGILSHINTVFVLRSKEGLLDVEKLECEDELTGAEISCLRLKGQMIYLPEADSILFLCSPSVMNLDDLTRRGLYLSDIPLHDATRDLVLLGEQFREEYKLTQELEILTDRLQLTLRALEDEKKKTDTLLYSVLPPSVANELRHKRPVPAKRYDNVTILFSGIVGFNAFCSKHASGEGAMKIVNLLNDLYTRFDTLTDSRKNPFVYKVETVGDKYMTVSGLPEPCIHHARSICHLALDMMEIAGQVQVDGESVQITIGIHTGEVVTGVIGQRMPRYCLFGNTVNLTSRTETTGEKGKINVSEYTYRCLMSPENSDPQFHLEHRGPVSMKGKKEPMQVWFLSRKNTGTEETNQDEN
T1 sequence (P19686 1-690 partner): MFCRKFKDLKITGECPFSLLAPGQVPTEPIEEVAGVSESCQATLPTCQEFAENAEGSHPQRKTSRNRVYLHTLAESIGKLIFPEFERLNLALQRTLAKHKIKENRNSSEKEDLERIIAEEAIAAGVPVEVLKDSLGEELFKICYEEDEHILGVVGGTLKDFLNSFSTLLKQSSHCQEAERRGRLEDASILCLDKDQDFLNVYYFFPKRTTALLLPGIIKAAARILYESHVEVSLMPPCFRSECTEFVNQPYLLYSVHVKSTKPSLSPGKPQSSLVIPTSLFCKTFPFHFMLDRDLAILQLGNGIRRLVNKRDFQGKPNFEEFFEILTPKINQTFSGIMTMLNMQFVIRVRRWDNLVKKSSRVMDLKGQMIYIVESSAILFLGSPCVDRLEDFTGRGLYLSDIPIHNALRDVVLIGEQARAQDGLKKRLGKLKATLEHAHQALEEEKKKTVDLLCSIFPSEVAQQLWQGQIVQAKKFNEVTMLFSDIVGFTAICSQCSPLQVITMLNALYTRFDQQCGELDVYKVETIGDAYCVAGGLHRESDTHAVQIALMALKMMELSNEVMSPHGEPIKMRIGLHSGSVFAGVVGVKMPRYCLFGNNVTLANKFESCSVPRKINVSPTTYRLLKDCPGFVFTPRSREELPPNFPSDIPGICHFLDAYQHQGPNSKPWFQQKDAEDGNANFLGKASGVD
Description: B-1. Action at a Recombinant Guanylate Cyclase Reporter Cell Line
The cellular action of the compounds according to the invention is determined at a recombinant guanylate cyclase reporter cell line, as described in F. Wunder et al., Anal. Biochem. 339, 104-112 (2005).

[3] = biological target: T2, soluble guanylate cyclase (sGC) (Rattus norvegicus, UniProt P20595); assay: Stimulation of sGC enzyme activity (PPi luminescence detection); type: biochemical; conditions: for EC50: read-out: EC50 (concentration at 50% of maximum efficacy), activating action at the sGC enzyme in vitro
T2 construct: made in house
T2 sequence (P20595 1-619): T1 sequence (P20595 1-619)
T2 sequence (P19686 1-690 partner): T1 sequence (P19686 1-690 partner)
Description: B-2. Stimulation of sGC Enzyme Activity
Soluble guanylate cyclase (sGC) converts on stimulation GTP into cGMP and pyrophosphate (PPi). PPi is detected with the aid of the assay described below. The signal produced in the assay increases as the reaction progresses and serves as a measure of the sGC enzyme activity under the given stimulation.
To carry out the assay, 29 μl of enzyme solution [0-10 nM soluble guanylate cyclase (prepared according to Honicka et al., J. Mol. Med. 77, 14-23 (1999)) in 50 mM TEA, 2 mM MgCl2, 0.1% BSA (fraction V), 0.005% Brij®, pH 7.5] are initially introduced into a microplate, and 1 μl of the substance to be tested (as a serially diluted solution in DMSO) is added. The mixture is incubated at room temperature for 10 min. Then 20 μl of detection mix [1.2 nM Firefly Luciferase (Photinus pyralis luciferase, Promega), 29 μM dehydroluciferin (prepared according to Bitler & McElroy, Arch. Biochem. Biophys. 72, 358 (1957)), 122 μM luciferin (Promega), 153 μM ATP (Sigma) and 0.4 mM DTT (Sigma) in 50 mM TEA, 2 mM MgCl2, 0.1% BSA (fraction V), 0.005% Brij®, pH 7.5] are added. The enzyme reaction is started by adding 20 μl of substrate solution [1.25 mM guanosine 5′-triphosphate (Sigma) in 50 mM TEA, 2 mM MgCl2, 0.1% BSA (fraction V), 0.005% Brij®, pH 7.5] and measured continuously in a luminometer. The extent of the stimulation by the substance to be tested can be determined relative to the signal of the unstimulated reaction.
The activation of heme-free guanylate cyclase is examined by addition of 25 μM of 1H-1,2,4-oxadiazolo[4,3-a]quinoxalin-1-one (ODQ) to the enzyme solution and subsequent incubation for 30 minutes and compared to the stimulation of the native enzyme.

| SMILES | IC50 [1] [nM] | MEC (minimum effective concentration), sGC-activating activity in the CHO reporter cell in vitro [2] [nM] | MEC (minimum effective concentration), activating action at the sGC enzyme in vitro [3] [nM] | EC50 [3] [nM] |
| --- | --- | --- | --- | --- |
| O=C(O)CCCCN(Cc1ccc(C(=O)O)cc1)C1CCc2cccc(OCc3ccc(CCc4ccccc4)cc3)c2C1 (centres unmarked) [Example 6] | 4380 | – | – | – |
| O=C(O)CCCCN(Cc1ccc(C(=O)O)cc1)C1CCc2cccc(OCc3ccc(CCc4ccccc4)cc3)c2C1 (centres unmarked) [Example 4] | – | 3.0 | 0.7 | 7.5 |
| CC(C)(C)c1nc(COc2cccc3c2CC(N(CCCCC(=O)O)Cc2ccc(C(=O)O)cc2)CC3)no1 (centres unmarked) [Example 12] | – | – | 205 | – |
| O=C(O)CCCCN(Cc1ccc(C(=O)O)cc1)C1CCc2cccc(OCCCN3CCOCC3=O)c2C1 (centres unmarked) [Example 9] | – | – | 700 | – |
| O=C(O)CCCCN(Cc1ccc(C(=O)O)cc1)C1CCc2cccc(OCCCN3CCCC3=O)c2C1 (centres unmarked) [Example 7] | – | – | 830 | – |
| CC(C)CCCCOc1cccc2c1CC(N(CCCCC(=O)O)Cc1ccc(C(=O)O)cc1)CC2 (centres unmarked) [Example 10] | – | 30 | 48 | 620 |
| O=C(O)CCCCN(Cc1ccc(C(=O)O)cc1)C1CCc2cccc(OCc3ccc(CCc4ccccc4)cc3)c2C1 (single isomer, unassigned) [Example 5] | 9140 | 0.3 | 0.13 | 1.4 |
| O=C(O)CCCCN(Cc1ccc(C(=O)O)cc1)C1CCc2cccc(OCc3cccc(F)c3)c2C1 (centres unmarked) [Example 11] | – | 300 | 200 | – |
| CC(C)(C)c1ccc(COc2cccc3c2CC(N(CCCCC(=O)O)Cc2ccc(C(=O)O)cc2)CC3)cc1 (racemic) [Example 1, rac-4-{[{8-[(4-tert-Butylbenzyl)oxy]-1,2,3,4-tetrahydronaphthalen-2-yl}(4-carboxybutyl)amino]-methyl}benzoic acid] | 113 | 0.3 | 0.12 | 8.5 |

Reference: US8673903B2, “Substituted 8-alkoxy-2-aminotetralin derivatives, and use thereof” (Bayer Intellectual Property GmbH, priority 2010, dated 2014)
